{
  "source": "patent US20180200275A1",
  "about": "“METHOD AND THE USE TO IMPROVE ORAL ABSORPTION OF NICOTINAMIDE AND NICOTINAMIDE RIBOSIDE” (Better Standing Company Inc., priority 2017, published 2018)",
  "key": {"[1]": {"settings": "cited from earlier work"}, "[2]": {"assay": "effects noted by a person (the inventor) after oral consumption", "type": "in vivo, human", "settings": "50 mg nicotinamide or 125 mg N-Ribosylnicotinamide chloride with water only, one person"}},
  "data": [
    {"smiles": "NC(=O)c1cccnc1", "note": "[nicotinamide, 3-pyridinecarboxamide]", "values": [
      {"measurement": "pKa of the pyridine ring nitrogen atom", "setting": "[1]", "value": 4.14},
      {"measurement": "effects of consuming shortly before bed with water only", "setting": "[2]", "value": "no discernible effects"}
    ]}
  ]
}
